Laboratory results taken from US12590130B2, “Bipartite molecules and uses thereof in treating diseases associated with abnormal protein aggregates” (ACADEMIA SINICA, priority 2014, dated 2026).

Experiments:
APP×PS1 transgenic mice [1] = experiment: Morris water maze in APP×PS1 transgenic mice; assay type: in vivo, mouse; settings: vs PEI
From the text: FIG. 12. R8-Aβ(25-35)-PEI improved memory as measured by the Morris water maze assay. Panel A: Plot of the escape latency period of wild type (WT) and APP×PS1 transgenic (Tg) mice of 8 months of age treated with either PEI or R8-Aβ(25-35) peptide from the age of 4 months to 8 months. […] Panel B: Percentage of time of WT or Tg mice treated as indicated spent in swimming in the target quadrant where the hidden platform used to be. The times of the indicated mice crossing the target quadrant. […] Panel C: The percentage of time of the WT or Tg mice as indicated crossing the target quadrant. Ten mice per group were used in this study. The statistics were performed with two way ANOVA with Fisher's LSD posthoc analysis. N=10/group *<0.05; ***<0.0005; ****<0.0001
(§1) APP×PS1 transgenic mice (B6C3-Tg (APPswe,PSEN1dE9) 85Dbo/Mmjax, purchased from Jackson Laboratories (USA), were bred and genotyped following the vendor's protocols. Borchelt et al., Neuron (1996) 17:1005-13; and Jankowsky et al., Biomol Eng (2001) 17:157-65. The mice had access to food and water ad libitum and were kept on a 12:12 h light-dark cycle. PEI and R8A β 25-35-PEI were dissolved in 100 mM NaH2PO4/138 mM KCl (pH 5) to a final concentration of 400 μM. For intranasal administration, 2.5 μL PEI or R8-A β (25-35)-PEI was given to each nostril of one mouse when they were […] for six days/week until they were 8 months of age. Mice were then tested with a Morris water maze. Treatment were resumed after a 6-week break for the water maze test, and continued until the mice were 12 months of age.
The maze was made of white opaque plastic with a diameter of 120 cm and contained 40 cm high walls. It was filled with milk/water at 25° C. […] The path length and escape latencies were recorded (n=10 per group). Acquisition data, such as time taken to reach the escape platform and path length were analyzed by two-way repeated measures ANOVA. […] The platform was removed from the maze and animals were allowed to swim freely for 90 s and the swimming path was recorded and analyzed.

APP×PS1 transgenic mice [2] = experiment: Thioflavin S staining of amyloid plaques in APP×PS1 mice; assay type: in vivo, mouse; settings: vs PEI
APP×PS1 transgenic mice [3] = experiment: Cytometric bead array for IL-6 and IL-1β in brain of APP×PS1 mice; assay type: in vivo, mouse; settings: cortex, 8 month-old Tg mice
Experimental: as §1
A cytometric bead array (CBA, mouse inflammation kit; BD Biosciences) was used to quantitatively measure cytokine expression levels in the control and treated mouse brain tissue lysates. […] This method quantifies soluble particles, in this case, cytokines, using a fluorescence-based detection mechanism. The beads, coated with the desired cytokine, IL-6 and IL-1B, reacted with the test lysates and standards, to which fluorescence dyes were then added. The assay was performed according to the manufacturer's instructions and analyzed on the FACS Calibur (Becton Dickinson). […]

[4] = Solubility of therapeutic peptides; assay type: physicochemical; settings: DMEM/10% FBS
Experimental: In this study, the rational design was tested for HD. Several bipartite therapeutic peptides containing 8 consecutive arginines (8R) attached to a stretch of consecutive glutamines (polyQ) were synthesized and their biological activity of decreasing the aggregation propensity of the mHtt protein was investigated. The length of the polyQ of these bipartite peptides was 5 (8R5Q), 10 (8R10Q), 15 (8R15Q) or 20 (8R20Q) (Table 2).

109QmHtt aggregates = experiment: Co-localization of TAMRA-labeled peptide with 109QmHtt aggregates in Neuro2a cells; assay type: cell-based; settings: Neuro2a cells expressing 109QmHtt
Chain of 109QmHtt aggregates (P42858 with tags, fused parts or gaps limits assumed): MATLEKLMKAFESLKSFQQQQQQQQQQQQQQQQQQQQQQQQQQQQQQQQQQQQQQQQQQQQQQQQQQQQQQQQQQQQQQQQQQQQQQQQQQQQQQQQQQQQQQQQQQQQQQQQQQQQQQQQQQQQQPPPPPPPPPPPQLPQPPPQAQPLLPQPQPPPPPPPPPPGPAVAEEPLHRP
Experimental: FIG. 3. Diagrams showing the co-localization of tested bipartite peptides with the 109QmHtt aggregates. Panel A: Structure of TAMRA-labeled 8R10Q used in this study. Panel B: Epifluorescence micrographs of Neuro2a cells expressing 109QmHtt treated with TAMRA-8R10Q (8R10Q) at various time points. Note the co-localization of 8R10Q and 109QmHttGFP aggregates (GFP) from 8-24 hours (arrows). Scale bar: 10 μm. Panel C: TIRF micrographs of the Neuro2a expressing 109QmHtt treated with water or peptides as indicated at various time points. Note the decrease in aggregate size in 8R10Q and 8R15Q-treated cells. Panel D: Quantitation of the size of individual aggregates in Neuro2a at 8 hours (left) and 24 hours (right) after peptide treatment. […] Panel E: Quantitation of the number of aggregates in 20 Neuro2a cells at 12 hours (left) and 24 hours (right) after peptide treatment. Both the 8R10Q and 8R15Q increased the number of aggregates. Statistics performed with one way ANOVA. **p<0.01; ***p<0.001.
The ability of 8R10Q to bind to the 109QmHtt was examined by determining its co-localization with the 109QmHtt aggregates. The 8R10Q peptide was labeled with carboxytetramethylrhodamine (TAMRA) dye (FIG. 3, panel A), and added into Neuro2a cells expressing 25QHtt or 109QmHtt.

Substance | escape latency / learning to find hidden platform (APP×PS1 transgenic mice [1]; Tg mice 8 months of age, intranasal) | time spent in the target quadrant (probe test) (APP×PS1 transgenic mice [1]; Tg mice) | learning curve of finding the hidden platform (APP×PS1 transgenic mice [1]; wild-type mice) | number of plaques (APP×PS1 transgenic mice [2]; cortex and hippocampus, 8 month-old) | percentage of the plaque areas (APP×PS1 transgenic mice [2]; cortex and hippocampus) | total area of amyloid plaques (APP×PS1 transgenic mice [2]; cortex and hippocampus) | average size of individual plaques (APP×PS1 transgenic mice [2]) | level of IL-1β (APP×PS1 transgenic mice [3]) | level of IL-6 (APP×PS1 transgenic mice [3]) | Solubility (DMEM/10% FBS) [4] | co-localization with 109QmHtt aggregates (109QmHtt aggregates)
RRRRRRRRGSNKGAIIGLM-PEI (not fully specified; PEI conjugate) [R8-Aβ(25-35)-PEI] | significant shortening of the latency | increased the time of Tg mice in the target quadrant | no clear difference in the learning curve | significantly reduced | significantly decreased | correspondingly decreased | failed to reach statistical significance | effectively decreased | effectively decreased |  | 
TAMRA-NH-(R)8-W-D-(Q)10-CONH2 ({TAMRA}-RRRRRRRRWDQQQQQQQQQQ-NH2) [TAMRA-8R10Q] |  |  |  |  |  |  |  |  |  | Soluble | co-localized with the aggregates
